Assay results published in ChEMBL document CHEMBL1136299, “Adenosine-anchored triphosphate subsite probing: distinguishing between HER-2 and HER-4 tyrosine protein kinases” (Bioorg Med Chem Lett, 2003).
The source made the active and inactive calls. No cut-off for these calls is given here.

Assays:
[1] = molecular target: Receptor tyrosine-protein kinase erbB-2 (Homo sapiens) (UniProt P04626); test: Ratio of HER-2 inhibition by diastereomers
[2] = molecular target: Receptor tyrosine-protein kinase erbB-4 (Homo sapiens) (UniProt Q15303); test: Ratio of HER-4 inhibition by diastereomers (inactive)
Chain of Receptor tyrosine-protein kinase erbB-4 (Homo sapiens) (Q15303 whole entry): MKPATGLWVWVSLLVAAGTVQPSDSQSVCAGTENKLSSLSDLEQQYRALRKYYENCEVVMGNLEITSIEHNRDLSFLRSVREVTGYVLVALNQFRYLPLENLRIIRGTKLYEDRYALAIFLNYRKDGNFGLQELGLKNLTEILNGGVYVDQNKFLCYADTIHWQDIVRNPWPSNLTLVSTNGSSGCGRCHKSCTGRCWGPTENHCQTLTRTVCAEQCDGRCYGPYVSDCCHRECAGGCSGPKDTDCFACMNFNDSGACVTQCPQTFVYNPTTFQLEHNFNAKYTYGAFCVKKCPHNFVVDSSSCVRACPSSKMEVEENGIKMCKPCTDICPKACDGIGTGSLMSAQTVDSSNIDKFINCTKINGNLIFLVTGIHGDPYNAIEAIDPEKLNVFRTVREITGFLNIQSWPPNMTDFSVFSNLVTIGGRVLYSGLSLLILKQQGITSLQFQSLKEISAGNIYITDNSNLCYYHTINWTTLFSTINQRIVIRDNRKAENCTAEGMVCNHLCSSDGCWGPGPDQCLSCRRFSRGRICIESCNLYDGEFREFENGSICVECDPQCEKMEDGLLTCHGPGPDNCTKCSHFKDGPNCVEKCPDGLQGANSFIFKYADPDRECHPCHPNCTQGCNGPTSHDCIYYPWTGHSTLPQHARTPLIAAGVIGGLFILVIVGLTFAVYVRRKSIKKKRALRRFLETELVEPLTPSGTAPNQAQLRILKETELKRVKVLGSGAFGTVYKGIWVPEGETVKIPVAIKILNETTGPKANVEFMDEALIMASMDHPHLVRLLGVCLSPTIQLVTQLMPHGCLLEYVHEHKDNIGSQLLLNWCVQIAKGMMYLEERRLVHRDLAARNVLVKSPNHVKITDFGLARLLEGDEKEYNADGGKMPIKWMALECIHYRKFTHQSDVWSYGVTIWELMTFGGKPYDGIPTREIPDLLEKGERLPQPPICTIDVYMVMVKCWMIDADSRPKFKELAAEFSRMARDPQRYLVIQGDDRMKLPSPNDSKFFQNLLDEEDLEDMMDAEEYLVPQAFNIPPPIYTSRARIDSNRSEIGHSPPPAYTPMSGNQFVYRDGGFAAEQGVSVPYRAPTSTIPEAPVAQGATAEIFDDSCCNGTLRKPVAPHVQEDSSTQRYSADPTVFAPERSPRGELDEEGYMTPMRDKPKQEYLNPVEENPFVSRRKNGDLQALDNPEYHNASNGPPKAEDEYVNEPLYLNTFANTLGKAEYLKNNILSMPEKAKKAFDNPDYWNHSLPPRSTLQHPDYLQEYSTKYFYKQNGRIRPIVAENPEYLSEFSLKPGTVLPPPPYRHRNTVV

[3] = molecular target: Receptor tyrosine-protein kinase erbB-4 (Homo sapiens) (UniProt Q15303); test: Ratio of HER-4 inhibition by diastereomers

Chain of Receptor tyrosine-protein kinase erbB-2 (Homo sapiens) (P04626 whole entry): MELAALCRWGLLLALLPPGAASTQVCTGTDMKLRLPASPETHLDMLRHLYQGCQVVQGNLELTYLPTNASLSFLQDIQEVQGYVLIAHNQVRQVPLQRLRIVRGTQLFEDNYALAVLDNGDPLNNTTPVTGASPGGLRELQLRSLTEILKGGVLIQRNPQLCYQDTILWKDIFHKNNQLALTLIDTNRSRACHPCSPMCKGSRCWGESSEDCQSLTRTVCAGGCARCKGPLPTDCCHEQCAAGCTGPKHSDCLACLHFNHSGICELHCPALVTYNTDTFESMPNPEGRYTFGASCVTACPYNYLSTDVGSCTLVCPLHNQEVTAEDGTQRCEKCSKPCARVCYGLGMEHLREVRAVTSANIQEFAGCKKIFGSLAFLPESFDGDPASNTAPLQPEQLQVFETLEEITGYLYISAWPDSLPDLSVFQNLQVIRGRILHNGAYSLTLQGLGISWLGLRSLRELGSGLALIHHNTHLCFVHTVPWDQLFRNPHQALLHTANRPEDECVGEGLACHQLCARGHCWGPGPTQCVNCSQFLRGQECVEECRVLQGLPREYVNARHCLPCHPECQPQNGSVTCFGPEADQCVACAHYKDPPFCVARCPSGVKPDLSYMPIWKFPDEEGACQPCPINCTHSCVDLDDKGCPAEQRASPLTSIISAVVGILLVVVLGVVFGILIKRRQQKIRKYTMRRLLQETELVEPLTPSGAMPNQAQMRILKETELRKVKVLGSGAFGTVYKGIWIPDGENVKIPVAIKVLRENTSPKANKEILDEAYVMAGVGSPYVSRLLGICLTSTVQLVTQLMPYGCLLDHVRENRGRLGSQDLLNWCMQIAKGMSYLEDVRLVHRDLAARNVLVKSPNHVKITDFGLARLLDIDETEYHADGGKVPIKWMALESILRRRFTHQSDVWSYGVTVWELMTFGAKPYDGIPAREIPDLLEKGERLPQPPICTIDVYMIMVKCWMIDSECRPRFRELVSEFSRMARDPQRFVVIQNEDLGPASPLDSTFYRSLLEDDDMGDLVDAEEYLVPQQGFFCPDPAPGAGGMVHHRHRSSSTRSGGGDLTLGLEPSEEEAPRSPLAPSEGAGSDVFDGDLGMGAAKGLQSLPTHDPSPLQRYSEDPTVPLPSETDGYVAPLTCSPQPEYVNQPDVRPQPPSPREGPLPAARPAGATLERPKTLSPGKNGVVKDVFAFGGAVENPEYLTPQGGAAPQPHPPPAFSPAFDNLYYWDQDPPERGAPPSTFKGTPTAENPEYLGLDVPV

| Selectivity [1] | Selectivity [2] | Selectivity [3] | Structure (SMILES) |
| --- | --- | --- | --- |
| 1.7 | inactive | – | CCOC1CC2(C)OC1(C(=O)OC)C(=O)N2C[C@H]1O[C@@H](n2cnc3c(NC(=O)OCc4ccccc4)ncnc32)[C@H](O)[C@@H]1O.CCOC1C[C@@]2(C)OC1(C(=O)OC)C(=O)N2C[C@H]1O[C@@H](n2cnc3c(NC(=O)OCc4ccccc4)ncnc32)[C@H](O)[C@@H]1O (some centres not stated) |
| 9.1 | inactive | – | CCOC1CC2(C)OC1(C(=O)NC[C@H]1O[C@@H](n3cnc4c(N)ncnc43)[C@H](O)[C@@H]1O)C(=O)N2C (some centres not stated) |
| 3.1 | inactive | – | CCOC1CC2(C[C@H]3O[C@@H](n4cnc5c(NC(=O)OCc6ccccc6)ncnc54)[C@H](O)[C@@H]3O)OC1(C(=O)OC)C(=O)N2C.CCOC1C[C@@]2(C[C@H]3O[C@@H](n4cnc5c(NC(=O)OCc6ccccc6)ncnc54)[C@H](O)[C@@H]3O)OC1(C(=O)OC)C(=O)N2C (some centres not stated) |
| 34.4 | – | 1.6 | CCOC1CC2(C[C@H]3O[C@@H](n4cnc5c(N)ncnc54)[C@H](O)[C@@H]3O)OC1(C(=O)OC)C(=O)N2C (some centres not stated) |
| 4.8 | – | 1.4 | CCOC1CC2OC1(C(=O)OC)C(=O)N2C[C@H]1O[C@@H](n2cnc3c(N)ncnc32)[C@H](O)[C@@H]1O.CCOC1C[C@@]2(C)OC1(C(=O)OC)C(=O)N2C[C@H]1O[C@@H](n2cnc3c(N)ncnc32)[C@H](O)[C@@H]1O (some centres not stated) |
| 54.7 | – | 1.2 | CN1C(=O)C2(C(N)=O)O[C@@]1(C)CC2OC(=O)NC[C@H]1O[C@@H](n2cnc3c(N)ncnc32)[C@H](O)[C@@H]1O.CN1CC2(C(N)=O)O[C@]1(C)C(=O)C2OC(=O)NC[C@H]1O[C@@H](n2cnc3c(N)ncnc32)[C@H](O)[C@@H]1O (some centres not stated) |
